Experimental data taken from US5300298A, “Methods of treating obesity with purine related compounds” (The Pennsylvania Research Corporation, priority 1992, dated 1994).

How the values were obtained:
[1] = cited from earlier work
[2] = Serum BW1433 level after chronic administration (fluorometric after HPLC separation); assay type: in vivo, Zucker rats; conditions: for concentration at 168 h: rat, serum, day 7
Experimental: Next, I studied the effect of chronic treatment with BW1433. For this purpose I employed 2 ml Alzet mini osmotic pumps. Each pump was loaded with 2 ml of a solution containing BW1433 or with vehicle (aqueous solution adjusted to pH II). The amount of BW1433 was adjusted so that the pump delivered either zero, 0.2 mg or 0.4 mg/Kg/hour to each animal. On the first day the animals had the pumps implanted and were given a priming (2 mg/Kg or 4 mg/Kg) dose of the antagonist. Blood was taken prior to surgery and six hours after the animals were removed from their food supply. On each subsequent day animals had free access to food and water overnight, then their food removed for six hours, and a blood sample taken. In addition to taking blood samples for glycerol analysis, each animal was weighed every day for seven days. After seven days the animals were fasted overnight and a glucose tolerance test given The animals were then sacrificed and 1 ml blood sample taken for serum insulin and serum BW1433 determination drug levels. Insulin levels were measured with RIA kit (Diagnostic Products) and BW1433 levels were measured fluorometrically after HPLC separation at Burroughs Wellcome, Research Triangle Park, North Carolina. […] Nonetheless, when glucose tolerance curves were administered on day 7, drug-related differences could still be seen in all animals studied. […] This is illustrated more clearly in FIG. 4 where the area under the glucose tolerance curve is shown as a bar for each of the 6 groups of animals. […] FIG. 5 is a chart of the change in weight of treated and untreated lean and obese animals. […] The effect on weight change in each case was maximal at day 3, the day when the glycerol values peaked. Based on these remarkable results, the compounds of Formula I can be administered to obese warm-blooded animals as anti-obesity agents, or administered to farm animals to advantageously increase the ratio of muscle mass to fat therein. […] The obese animals apparently have lower extracellular fluid volume per Kg body weight.

[3] = system: lean and obese Zucker rats; assay: Daily serum glycerol during chronic administration of BW1433 (Alzet mini osmotic pumps); assay type: in vivo
Experimental: FIG. 2: Daily serum glycerol levels during chronic administration of BW1433 in lean (L) and obese (F) Zucker rats. In the no drug group (V) n=5, in the D1 group (0.2 mg/Kg/hr) n=5, and in the D2 group (0.4 mg/Kg/hr) n=4.
(§1) Next, I studied the effect of chronic treatment with BW1433. For this purpose I employed 2 ml Alzet mini osmotic pumps. Each pump was loaded with 2 ml of a solution containing BW1433 or with vehicle (aqueous solution adjusted to pH II). The amount of BW1433 was adjusted so that the pump delivered either zero, 0.2 mg or 0.4 mg/Kg/hour to each animal. On the first day the animals had the pumps implanted and were given a priming (2 mg/Kg or 4 mg/Kg) dose of the antagonist. Blood was taken prior to surgery and six hours after the animals were removed from their food supply. On each subsequent day animals had free access to food and water overnight, then their food removed for six hours, and a blood sample taken.
(§2) In addition to taking blood samples for glycerol analysis, each animal was weighed every day for seven days. After seven days the animals were fasted overnight and a glucose tolerance test given The animals were then sacrificed and 1 ml blood sample taken for serum insulin and serum BW1433 determination drug levels. Insulin levels were measured with RIA kit (Diagnostic Products) and BW1433 levels were measured fluorometrically after HPLC separation at Burroughs Wellcome, Research Triangle Park, North Carolina. […] Nonetheless, when glucose tolerance curves were administered on day 7, drug-related differences could still be seen in all animals studied. […] This is illustrated more clearly in FIG. 4 where the area under the glucose tolerance curve is shown as a bar for each of the 6 groups of animals. […] FIG. 5 is a chart of the change in weight of treated and untreated lean and obese animals. […] The effect on weight change in each case was maximal at day 3, the day when the glycerol values peaked. Based on these remarkable results, the compounds of Formula I can be administered to obese warm-blooded animals as anti-obesity agents, or administered to farm animals to advantageously increase the ratio of muscle mass to fat therein.

[4] = Body weights during chronic administration of BW1433; assay type: in vivo, Zucker rats
Experimental: FIG. 5: Body weights of lean and obese Zucker rats during chronic administration of BW1433. The data are presented as a % of day 0 weight. Day 0 represents when the Alzet mini-pumps were implanted. The conditions are the same as those described in the legend to FIG. 2.
as §1
as §2, with “Based on these remarkable results, the compounds of Formula I can be administered to obese warm-blooded animals as anti-obesity agents, or administered to farm animals to advantageously increase the ratio of muscle mass to fat therein.” left out

[5] = system: lean and obese Zucker rats; assay: Glucose tolerance test after seven days of BW1433 administration; assay type: in vivo
Experimental: FIG. 3: Glucose tolerance test after seven days of BW1433 administration. Animals were fasted overnight before injection of 1.25 g/Kg glucose and samples taken 15, 30, 60 and 120 min for glucose determinations. The conditions are the same as those described in legend to FIG. 2 (Cont=V).
FIG. 4: A bar graph representing the area under the glucose tolerance curves of FIG. 3.
as §1
as §2, with “Based on these remarkable results, the compounds of Formula I can be administered to obese warm-blooded animals as anti-obesity agents, or administered to farm animals to advantageously increase the ratio of muscle mass to fat therein.” left out

Al adenosine receptor [6] = assay: Acute subcutaneous injection of BW1433, serum glycerol (whole body lipolysis); assay type: in vivo, Sprague Dawley rats; lean and obese Zucker rats; conditions: Sprague Dawley rats, 18 hour fasted, 60 min after subcutaneous injection, 0-10 mg/Kg
Experimental: FIG. 1: Serum glycerol levels 60 min after a subcutaneous injection of BW1433 (0-10 mg/Kg) in Sprague Dawley rats (SD) and lean and obese Zucker rats. Each point represents 3-4 animals in the case of SD rats and 3-10 or 4-10 in the case of lean and obese Zuckers, respectively.
My initial studies were carried out following acute subcutaneous injections of the drug into male Sprague Dawley rats and into lean and into obese Zucker rats. Blood samples (100 microliter) were taken from the tail of the rats and measurements made of serum glycerol^6. Glycerol is an end product of lipolysis and thus an excellent indicator of the rate of whole body lipolysis. […] I discovered that in the absence of the Formula I compound tested, serum glycerol levels only differ slightly when comparing lean and obese animals. Since there is 3-4 times more fat in the obese animal this is good evidence for sluggish lipolysis per g of fat in the obese. The obese animals however seem to mobilize the fat at an earlier time after removal of their food supply (Table 1), since after 6 hours of fasting the obese serum glycerol levels are much higher than the lean.
Next, I studied the effect of subcutaneous injections of BW1433 in 18 hour fasted animals. The results, shown in FIG. 1, support my initial postulation, that the Al adenosine receptor may be particularly active in obese animals. […]

[7] = system: lean and obese (fatty) Zucker rats; assay: Serum insulin after chronic administration of BW1433 (RIA kit); assay type: in vivo
Experimental: as §1, §2
The obese animals apparently have lower extracellular fluid volume per Kg body weight.

Al adenosine receptor [8] = assay: Blockade by BW1433 of receptors activated with the agonist N-6 phenylisopropyladenosine (PIA), subcutaneous; assay type: in vivo, rat (Sprague Dawley, lean Zucker, obese Zucker); conditions: all three strains of rat
Experimental: Next, I studied the effect of subcutaneous injections of BW1433 in 18 hour fasted animals. The results, shown in FIG. 1, support my initial postulation, that the Al adenosine receptor may be particularly active in obese animals. […] To distinguish between these possibilities, the agonist N-6 phenylisopropyladenosine (PIA) was injected subcutaneously either alone or in combination with BW1433.

- concentration at 168 h ([2]; 0.2 mg/kg/h, Fatty, +BW1433, 0.2 mg/kg (pump, per hour)): 205 ± 22 ng/mL
- concentration at 168 h ([2]; 0.2 mg/kg/h, Lean, +BW1433, 0.2 mg/kg (pump, per hour)): 102 ± 20 ng/mL
- concentration at 168 h ([2]; 0.4 mg/kg/h, Fatty, +BW1433, 0.4 mg/kg (pump, per hour)): 624 ± 80 ng/mL
- concentration at 168 h ([2]; 0.4 mg/kg/h, Lean, +BW1433, 0.4 mg/kg (pump, per hour)): 366 ± 98 ng/mL
SMILES: CCCn1c(=O)c2nc(-c3ccc(/C=C/C(=O)O)cc3)[nH]c2n(CCC)c1=O [BW1433, (E)-4-(1,2,3,6-tetrahydro-2,6-dioxo-1,3-dipropyl-9H-purin-8-yl)cinnamic acid]
- oral administration and absorption [1]: can be administered and absorbed orally
- serum drug level, obese versus lean ([2]; obese compared with lean Zucker rats): somewhat higher levels of drug than the lean
- day when the glycerol values peaked ([3]; chronic): 3 days
- serum levels on day 7 (adaptation to the drug) ([3]; day 7, chronic): all serum levels were similar on day 7
- effect on serum glycerol level ([3]; lean Zucker rats, chronic 0.2 or 0.4 mg/Kg/hour): did not effect the glycerol level
- serum glycerol level, higher dose (0.4 mg/Kg) versus lower dose (0.2 mg/Kg) ([3]; obese Zucker rats, chronic): higher in the group with the higher dose of drug
- serum glycerol level versus controls ([3]; obese Zucker rats, chronic 0.2 or 0.4 mg/Kg/hour): much higher levels of glycerol than the controls
- growth or weight gain ([4]; lean Zucker rats): increased growth or weight gain
- day of maximal effect on weight change ([4]; lean and obese): 3 days
- growth or weight gain ([4]; obese Zucker rats): decreased growth or weight gain
- glucose tolerance ([5]; day 7, 1.25 g/Kg glucose): improved glucose tolerance
- area under the glucose tolerance curves ([5]; lean and obese (fatty) animals, FIG. 4): does reduce the area under these curves
- area under the glucose tolerance curve ([5]; lean and obese Zucker rats, 1.25 g/Kg glucose intraperitoneal, day 7, dose dependence): smaller, the larger the dose
- effect on serum glycerol (Al adenosine receptor [6]): little or no effect
- serum insulin ([7]; Fatty, +BW1433, 0.2 mg/kg (vehicle 54.06 ± 9.49)): 52.81 ± 4.82 micro lu/ml
- serum insulin ([7]; Fatty, +BW1433, 0.4 mg/kg (vehicle 54.06 ± 9.49)): 58.06 ± 6.52 micro lu/ml
- serum insulin ([7]; Lean, +BW1433, 0.2 mg/kg (vehicle 7.92 ± 0.92)): 11.63 ± 1.62 micro lu/ml
- serum insulin ([7]; Lean, +BW1433, 0.4 mg/kg (vehicle 7.92 ± 0.92)): 10.67 ± 1.50 micro lu/ml
- dose at which receptors could be effectively blocked (Al adenosine receptor [8]): 1 to 2 mg/kg
